Source: article PMC10662156 (Scientific Reports, 2023)

Legend:
ALDH2 [1] = target: T1, ALDH2 (Homo sapiens, UniProt P05091); assay: QuantiChrom ALDH inhibitor screening kit, diaphorase/MTT-coupled colorimetric assay ([…] nm), recombinant enzyme; type: biochemical
T1 sequence (P05091 18-517): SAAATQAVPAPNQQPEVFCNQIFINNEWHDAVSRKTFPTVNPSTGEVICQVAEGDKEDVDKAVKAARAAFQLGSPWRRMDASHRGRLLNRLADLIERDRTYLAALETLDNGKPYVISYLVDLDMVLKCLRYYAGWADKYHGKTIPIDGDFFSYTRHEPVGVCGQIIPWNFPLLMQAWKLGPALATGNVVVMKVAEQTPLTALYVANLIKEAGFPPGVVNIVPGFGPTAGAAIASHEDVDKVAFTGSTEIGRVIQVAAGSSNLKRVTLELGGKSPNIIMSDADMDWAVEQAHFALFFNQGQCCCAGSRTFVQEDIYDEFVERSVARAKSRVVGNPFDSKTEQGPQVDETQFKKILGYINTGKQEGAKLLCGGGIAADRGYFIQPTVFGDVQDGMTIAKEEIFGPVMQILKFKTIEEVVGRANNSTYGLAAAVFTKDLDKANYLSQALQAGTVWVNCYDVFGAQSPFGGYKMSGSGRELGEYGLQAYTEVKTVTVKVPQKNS

ALDH2 [2] = target: T1, ALDH2; assay: QuantiChrom ALDH inhibitor screening kit, % inhibition at […], recombinant enzyme; type: biochemical

## O=C(O)[C@H]1O[C@@H](Oc2c(-c3ccc(O)c(O)c3)oc3cc(O)cc(O)c3c2=O)[C@H](O)[C@@H](O)[C@@H]1O [compound 9, quercetin-3-glucuronide]
ALDH2 [1]
  IC50: 9.62 µM

## COc1ccc(-c2oc3cc(O)cc(O)c3c(=O)c2O)cc1O [compound 8, tamarixetin]
ALDH2 [2]
  inhibition at 20 µM: 25.8 ± 1.31%

## O=c1c(O)c(-c2ccc(O)c(O)c2)oc2cc(O)cc(O)c12 [compound 2, quercetin]
ALDH2 [1]
  IC50: 26.5 µM
